Test results as given in US20110118304A1, “METHOD FOR TREATING OVER-EATING DISORDERS” (NeuroSearch A/S, priority 2007, published 2011).

System: Diet-Induced Obese Rats
Assay: Effect of tesofensine on food-intake in diet-induced obese rats
Type: in vivo, male Sprague-Dawley rats
Conditions: single subcutaneous injection of 1,5 mg/kg at lights out; diet-induced obese rats on high-fat diet; versus vehicle (saline); FIG. 1
Description: These rats were from 3-5 weeks of age only given access to a high-fat diet (#12266B; 31.8% kcal from fat, energy density […], Research Diets, New Jersey). After 17 weeks on high-fat diet, animals were stratified according to body weight. Tesofensine was injected in different doses to male Sprague-Dawley rats. Vehicle (saline), or tesofensine at different doses (from 0,5 mg/kg to 2,0 mg/kg) was administered as a single subcutaneous injection at lights out. The level of food-intake was continuously determined over the next 18 hours in an automated food-delivering system.
In FIG. 1, the level of food-intake over night is illustrated of two groups of animals; receiving either a single dose of 1,5 mg/kg tesofensine (triangles) or vehicle (squares).
In FIG. 2, a relation between increasing doses of tesofensine and the accumulated food-intake over a 18 h observation is shown.

Compound: CCOC[C@@H]1[C@@H](c2ccc(Cl)c(Cl)c2)C[C@@H]2CC[C@H]1N2C [tesofensine, (1R,2R,3S,5S)-3-(3,4-dichlorophenyl)-2-(ethoxymethyl)-8-methyl-8-azabicyclo[3.2.1]octane]
- level of food-intake over night: inhibits food intake over night
